What all share (assay type): cell-based
What all share (settings): single active, 7 days after inoculation

The subject of one assay is Pyricularia oryzae.
The test system of the next assay is Septoria tritici. Kind of assay: Microtest, activity against leaf blotch on wheat caused by Septoria tritici.
The next assay relates to Microdochium nivale. In words: Microtest, activity against Microdochium nivale.
Another assay concerns Rhizoctonia solani. Kind of assay: Microtest, activity against Rhizoctonia solani.
A further assay concerns Pyrenophora teres. In words: Microtest, activity against Pyrenophora teres.
Another assay concerns Leptosphaeria nodorum. In words: Microtest, activity against wheat leaf spots caused by Leptosphaeria nodorum.

Read-outs that look alike come from different tables or passages of the source.

Take `Fc1ccc([C@]2(Cn3cncn3)O[C@H]2c2ccccc2Cl)cc1` [Epoxiconazol]: the Observed efficacy with Pyricularia oryzae (0.063 ppm) was determined as 1; in the assay on Pyricularia oryzae (0.25 ppm) it was 28; with Septoria tritici (0.016 ppm), 7; in the assay on Microdochium nivale (0.004 ppm) it was 8; with Microdochium nivale (0.016 ppm), 29; with Rhizoctonia solani (0.001 ppm) it was 0. The Observed efficacy came to 0 with Rhizoctonia solani (0.004 ppm), 24 in the assay with Rhizoctonia solani (0.016 ppm) and 0 with Pyrenophora teres (0.016 ppm).
`COCC(=O)N(c1c(C)cccc1C)C(C)C(=O)OC` (centres unmarked) [Metalaxyl]: the Observed efficacy with Septoria tritici (1 ppm) and with Septoria tritici (4 ppm) was 5 throughout.
In the case of `COC(=O)N(OC)c1ccccc1COc1ccn(-c2ccc(Cl)cc2)n1` [Pyraclostrobin], the Observed efficacy in the assay with Leptosphaeria nodorum (0.25 ppm) worked out at 72; with Pyrenophora teres (0.016 ppm) it was 34.
Compound `CC1(C)CCC(=Cc2ccc(Cl)cc2)C1(O)Cn1cncn1` (centres unmarked) [Triticonazol] came in with an Observed efficacy in the assay on Septoria tritici (0.063 ppm) of 5.
As to `CN(C(=O)c1ccccc1)c1cccc(C(=O)Nc2c(Br)cc(C(F)(C(F)(F)F)C(F)(F)F)cc2C(F)(F)F)c1F` [carboxamide compound of formula I], the Observed efficacy is 11 in the assay with Septoria tritici (63 ppm), 1 in the assay on Leptosphaeria nodorum (4 ppm) and 20 in the assay with Pyrenophora teres (63 ppm).

The values above are taken from US11882827B2, “Agricultural mixtures comprising carboxamide compound” (BASF AGROCHEMICAL PRODUCTS B.V., priority 2013, dated 2024).
